PubChem BioAssay (NCI)
Where “and” joins values, the source holds several entries; their conditions need not be identical. Equal values may be shown once.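 These data come from cells grown in 96-well plates and exposed to compound for 48 hours at five concentrations. Here, GI50 denotes the concentration required for 50% inhibition of growth. TGI is the concentration that stops growth completely.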

Assays:
Assay in all cases: inhibition of tumour cell growth, NCI panel, 48 h
SF-539 CNS = tested on: SF-539 CNS
SF-268 CNS = tested on: SF-268 CNS
SF-295 CNS = tested on: SF-295 CNS
OVCAR-8 ovarian = tested on: OVCAR-8 ovarian
CCRF-CEM leukemia = tested on: CCRF-CEM leukemia
EKVX NSCLC = tested on: EKVX NSCLC
DU-145 prostate = tested on: DU-145 prostate
786-0 renal = tested on: 786-0 renal
OVCAR-4 ovarian = tested on: OVCAR-4 ovarian
HL-60(TB) leukemia = tested on: HL-60(TB) leukemia

Row | SMILES | GI50 (SF-539 CNS) [µM] | TGI (SF-539 CNS) [µM] | GI50 (SF-268 CNS) [µM] | TGI (SF-268 CNS) | GI50 (SF-295 CNS) [µM] | TGI (SF-295 CNS) [µM] | GI50 (OVCAR-8 ovarian) [µM] | TGI (OVCAR-8 ovarian) | GI50 (CCRF-CEM leukemia) [µM] | TGI (CCRF-CEM leukemia) | GI50 (EKVX NSCLC) [µM] | TGI (EKVX NSCLC) | GI50 (DU-145 prostate) [µM] | TGI (DU-145 prostate) [µM] | GI50 (786-0 renal) [µM] | TGI (786-0 renal) [µM] | GI50 (OVCAR-4 ovarian) [µM] | TGI (OVCAR-4 ovarian) [µM] | GI50 (HL-60(TB) leukemia) [µM] | TGI (HL-60(TB) leukemia)
1 | CO/N=C(/C)COc1ccc2c(c1)oc(=O)c1cc(OC)ccc12 | > 100 | > 100 | > 100 | > 100 µM | 82.4 | > 100 | > 100 | > 100 µM | > 100 | > 100 µM | > 100 | > 100 µM | > 100 | > 100 | > 100 | > 100 | 47.1 | > 100 |  | 
2 | CC(=O)Oc1ccc(C2OC(c3ccc4ccccc4c3OC(C)=O)=NN2C(C)=O)c(OC(C)=O)c1 (stereo not given) | 0.342 | 12.3 | 0.31 | > 46 µM | 0.295 | 14.8 | 0.363 | > 100 µM | 0.32 | > 100 µM |  |  | 0.476 | > 100 | 0.479 | > 77.2 | 0.291 | > 75.9 | 0.267 | 4.82 µM
3 | CC[O-].CC[O-].O=C1C=C([O-])C(=O)c2ccccc21.O=C1C=C([O-])C(=O)c2ccccc21.[Ti+4] | 100 | > 100 | > 100 | > 100 µM |  | > 100 | > 100 | > 100 µM | > 100 | > 100 µM | > 100 | > 100 µM |  |  | > 100 | > 100 | > 100 | > 100 | 7.22 | > 100 µM
4 | CC(=O)OC(COc1ccc2c(c1)[n+]([O-])nc(N)[n+]2[O-])CN1CCCCC1 (stereo not given) |  | 39 |  |  |  |  |  | 41 µM |  | 79.3 µM |  |  |  | 54.9 |  | 36.6 |  | > 100 |  | 26.9 µM
5 | CC1=C2CC[C@@]3(C)C(=CCC3O)C2(C)CCC1=O (stereo not given in full) |  | > 100 |  | > 100 µM |  | > 100 |  | > 100 µM |  | > 100 µM |  | > 100 µM |  |  |  | > 100 |  | > 100 |  | > 100 µM
6 | CC(=O)Oc1ccc2c(=O)c(C(C)=O)coc2c1 |  | > 100 |  | > 100 µM |  | > 100 |  | > 100 µM |  | > 100 µM |  | > 100 µM |  |  |  | > 100 |  | > 100 |  | > 100 µM
7 | OC1CC(O)O[C@H](c2ccccc2)C1 (stereo not given in full) |  | > 100 |  | > 100 µM |  | > 100 |  | > 100 µM |  | > 100 µM |  | > 100 µM |  |  |  | > 100 |  | > 100 |  | > 100 µM
8 | COC(=O)c1cc(O)ccc1O |  | > 100 |  | > 100 µM |  | > 100 |  | > 100 µM |  | > 100 µM |  | > 100 µM |  |  |  | > 100 |  | > 100 |  | > 100 µM
9 | CCCCCc1cc(/C=C2/N=C(c3ccc[nH]3)C=C2OC)[nH]c1C |  | 0.177 |  | 1.13 µM |  | < 0.0282 |  | 1.25 µM |  | 0.209 µM |  | 1.4 µM |  | 1.48 |  | < 0.0459 |  | 0.351 |  | 
10 | CCCCCCCCCCCCC(O)C1CCC(C(O)CCCCC(O)CCCCCC2CC(CC(C)=O)C(=O)O2)O1 (stereo not given) | 2.36 | 21.1 | 1.37 | 4.45 µM and 17.1 µM | 0.508 | 13.5 | 1.38 | 3.48 µM and 20.9 µM |  | 5.6 µM and 8.12 µM | 1.08 | 4.11 µM and 20.8 µM |  |  | 3.91 | 19.7 |  | 19.1 | 1.29 | 4.02 µM and 2.75 µM
11 | COc1ccc(OC)c(C2=C(c3cn(C)c4ccccc34)C(=O)NC2=O)c1 | > 25 | > 25 | > 25 | > 25 µM | > 22.7 | > 25 | > 25 | > 25 µM | > 25 | > 25 µM |  |  | > 25 | > 25 | > 25 | > 25 | > 25 | > 25 | > 18.8 | > 25 µM
12 | OC1(C(Sc2ccccc2)Sc2ccccc2)CCCCCC1 |  | 64.9 |  | > 100 µM |  | 66.2 |  | > 100 µM |  | 77.3 µM |  | 63.5 µM |  |  |  | 64.9 |  | > 100 |  | 50.8 µM
13 | CCOc1cc(Cl)c(C(C)NC(=O)c2cccc(OC)c2)cc1OCC (stereo not given) | 5.01 | 34.3 | 23.6 | > 100 µM | 5.99 | > 84.5 | 25.7 | > 100 µM | 11.7 | > 100 µM |  |  | 24.8 | > 100 | 20.5 | > 100 | 17.9 | 99.4 | 3.96 | > 100 µM
14 | NNC(=O)/C(NC(=O)c1ccccc1)=C(\N)c1cccc([N+](=O)[O-])c1 |  | > 100 |  | > 100 µM |  | > 100 |  | > 100 µM |  | > 100 µM |  | > 100 µM |  |  |  | > 100 |  | > 100 |  | > 100 µM
15 | Cc1ccc(NC(=S)NNC(=S)Nc2ccc(C)cc2)cc1 | 5.46 | > 100 | 6.05 | > 100 µM | 3.16 | > 100 | 7.95 | > 100 µM |  |  | 17.9 | > 100 µM | 6.89 | 59.2 | 51.3 | > 100 | > 100 | > 100 |  | 
16 | CC(C)C[C@H](NC(=O)[C@@H](Cc1ccccc1)n1ccc(Nc2ccccc2)cc1=O)B(O)O | 0.174 | 0.484 | 0.385 | 2.31 µM | 0.285 | 1.22 | 1.88 | 74.6 µM | 0.34 | 5.98 µM |  |  | 0.783 | 16.7 | 0.582 | 59 | 1.18 | 21.3 |  | 
17 | O=C1/C(=C/c2ccc(Cl)cc2)CN(Cc2cn(CCCNc3ccnc4cc(Cl)ccc34)nn2)C/C1=C\c1ccc(Cl)cc1 | 0.645 | 1.72 | 0.54 | 2.01 µM | 0.708 | 1.84 | 0.572 | 1.41 µM | 0.426 | > 20.5 µM |  |  | 1.16 | 2.47 | 0.754 | 2.06 | 0.5 | 2.38 | 0.809 | 3.33 µM
